A word on the IC50: it is the point on the concentration scale where inhibition reaches its midpoint.

This experiment concerns the target Reverse transcriptase protein (Human immunodeficiency virus 1, UniProt Q9WJQ1). Briefly: In-vitro HIV-1 RT Screening. The procedure: The reaction mixture was set with template primer complex, RT enzyme and dNTPs in a lysis buffer with or without inhibitors. The reaction mixture was incubated at 37 °C for 1 h and then transferred to streptavidine-coated microtitre plate (MTP). The biotin-labeled dNTPs that were incorporated in the template due to activity of RT, bound to streptavidine. The unbound dNTPs were washed using wash buffer and anti-DIG-POD was added to the MTP. The DIG-labeled dNTPs incorporated in the template were bound to an anti-DIG-POD antibody. The unbound anti-DIG-POD was washed again with washing buffer and the peroxide substrate (ABST) was added to the MTP. A colored reaction product was produced during the cleavage of the substrate catalyzed by a peroxide enzyme.
As for `O=C(Nc1ccc(F)cc1)OC(CN1CCCc2ccccc21)c1ccc(Cl)cc1` (configuration not stated) [1-(4-chlorophenyl)-2-(3,4-dihydroquinolin-1(2H)-yl)ethyl 4-fluorophenylcarbamate (6g)], the midpoint of inhibition, the IC50, lay at 48.6 µM.

With `O=C(Nc1ccccc1)OC(CN1CCCc2ccccc21)c1ccc(Cl)cc1` (configuration not stated) [1-(4-chlorophenyl)-2-(3,4-dihydroquinolin-1(2H)-yl)ethyl phenylcarbamate (6a)], it took 37 µM to reach half-maximal inhibition (IC50).

Compound `CCOC(=O)c1ccccc1NC(=O)OC(CN1CCCc2ccccc21)c1ccc(Cl)cc1` (configuration not stated) [Ethyl 2-((1-(4-chlorophenyl)-2-(3,4-dihydroquinolin-1(2H)-yl)ethoxy)carbonylamino) benzoate (6k)] showed an IC50 of 39 µM.

In turn, `O=C(Nc1ccccc1F)OC(CN1CCCc2ccccc21)c1ccc(Cl)cc1` (configuration not stated) [1-(4-chlorophenyl)-2-(3,4-dihydroquinolin-1(2H)-yl)ethyl 2-fluorophenylcarbamate (6e)] yielded an IC50 of 90.3 µM.

As to `O=C(Nc1ccc([N+](=O)[O-])cc1)OC(CN1CCCc2ccccc21)c1ccc(Cl)cc1` (configuration not stated) [1-(4-chlorophenyl)-2-(3,4-dihydroquinolin-1(2H)-yl)ethyl 4-nitrophenylcarbamate (6j)], the IC50 was determined as 5.42 µM.

For `O=C(Nc1cccc(F)c1)OC(CN1CCCc2ccccc21)c1ccc(Cl)cc1` (configuration not stated) [1-(4-chlorophenyl)-2-(3,4-dihydroquinolin-1(2H)-yl)ethyl 3-fluorophenylcarbamate (6f)], the IC50 was found to be 72.1 µM.

In turn, `O=C(Nc1ccc(Cl)cc1)OC(CN1CCCc2ccccc21)c1ccc(Cl)cc1` (configuration not stated) [1-(4-chlorophenyl)-2-(3,4-dihydroquinolin-1(2H)-yl)ethyl 4-chlorophenylcarbamate (6h)] came in with an IC50 of 23.8 µM.

Compound `O=C(Nc1cccc([N+](=O)[O-])c1)OC(CN1CCCc2ccccc21)c1ccc(Cl)cc1` (configuration not stated) [1-(4-chlorophenyl)-2-(3,4-dihydroquinolin-1(2H)-yl)ethyl 3-nitrophenylcarbamate (6i)] gave an IC50 of 14.9 µM.

`Cc1ccc(NC(=O)OC(CN2CCCc3ccccc32)c2ccc(Cl)cc2)cc1` (configuration not stated) [1-(4-chlorophenyl)-2-(3,4-dihydroquinolin-1(2H)-yl)ethyl p-tolylcarbamate (6d)] showed an IC50 of 83.6 µM.

As to `Cc1cccc(NC(=O)OC(CN2CCCc3ccccc32)c2ccc(Cl)cc2)c1` (configuration not stated) [1-(4-chlorophenyl)-2-(3,4-dihydroquinolin-1(2H)-yl)ethyl m-tolylcarbamate (6c)], the IC50 was found to be 68.3 µM.

Compound `Cc1ccccc1NC(=O)OC(CN1CCCc2ccccc21)c1ccc(Cl)cc1` (configuration not stated) [1-(4-chlorophenyl)-2-(3,4-dihydroquinolin-1(2H)-yl)ethyl o-tolylcarbamate (6b)] registered an IC50 of 8.12 µM.

For `CCOC(=O)c1ccc(NC(=O)OC(CN2CCCc3ccccc32)c2ccc(Cl)cc2)cc1` (configuration not stated) [Ethyl4-((1-(4-chlorophenyl)-2-(3,4-dihydroquinolin-1(2H)-yl)ethoxy)carbonylamino) benzoate (6l)], half-maximal inhibition (IC50) required 12.3 µM.
